The values that follow come from ChEMBL document CHEMBL5325491, “Small-Molecule Hydrophobic Tagging: A Promising Strategy of Druglike Technology for Targeted Protein Degradation” (J Med Chem, 2023).

The structures appear in SMILES notation. Starred links: 1 amine or outer side, 2 acyl side, 3 side chain; linkers in the order of their positions; H or OH if unused. Non-standard residues stand in square brackets, D forms with d. Residues, ends and D or L forms follow the SMILES beside them. *: point of attachment. Adamantane1carbonyl = O=C(C12CC3CC(CC(C3)C1)C2)*; X1 = O=C(C12CC3CC(CC(N[*:1])(C3)C1)C2)[*:2] Where only a bound is given, the exact number is not on record here.

For assay [1], the target named is TAR DNA-binding protein 43 (Mus musculus) (UniProt Q921F2). The experiment in a line: Induction of TDP-43 degradation in mouse N2a cells at 100 uM measured after 24 hrs by Western blot analysis relative to control. Type of assay: cell-based. In general terms: Immunoblotting shows a protein as a band on a membrane.
Assay [2] can be described thus: Antiproliferative activity against HER3 dependent human HCC827 Gefitinib-resistant 6 (GR6) cell assessed as cell viability by CellTiter-Glo Luminescent Assay. Type of assay: functional, cell-based. A general note: ATP-based viability assays read luminescence as a measure of living cells.
The next assay deals with OVCAR-8. In words: Antiproliferative activity against HER3 dependent human OVCAR-8 cells assessed as cell viability by CellTiter-Glo Luminescent Assay. The assay is classed as functional, cell-based.
The nature of assay [3]: Antiproliferative activity against HER3 dependent human PC9 Gefitinib-resistant 4 (GR4) cell assessed as cell viability by CellTiter-Glo Luminescent Assay. Type of assay: functional, cell-based.
A further assay relates to MCF7. In words: Anticancer activity against EZH2 dependent human MCF7 cells assessed as cell growth inhibition by MTT assay. Type of assay: functional.
The subject of another assay is KARPAS-422. The experiment in a line: Anticancer activity against EZH2 dependent human KARPAS-422 cells assessed as cell growth inhibition by MTT assay. The assay is classed as functional. For orientation: Tetrazolium dyes change colour on reduction, which living cells bring about.
The subject of a further assay is HCC1187. In words: Anticancer activity against EZH2 dependent human HCC1187 cells assessed as cell growth inhibition by MTT assay. The assay is classed as functional.
The subject of a further assay is BT-549. In words: Anticancer activity against EZH2 dependent human BT-549 cells assessed as cell growth inhibition by MTT assay. Type of assay: functional.
For the next assay, the system named is SU-DHL-8. In words: Anticancer activity against EZH2 dependent human SU-DHL-8 cells assessed as cell growth inhibition by MTT assay. Type of assay: functional.
A further assay relates to HCC70. The experiment in a line: Anticancer activity against EZH2 dependent human HCC70 cells assessed as cell growth inhibition by MTT assay. The assay is classed as functional.
The next assay concerns HCC1954. The experiment in a line: Anticancer activity against EZH2 dependent human HCC1954 cells assessed as cell growth inhibition by MTT assay. The assay is classed as functional.
Assay [4] addresses T1, Dihydrofolate reductase (Escherichia coli) (UniProt P0ABQ4).
T1 sequence (whole entry): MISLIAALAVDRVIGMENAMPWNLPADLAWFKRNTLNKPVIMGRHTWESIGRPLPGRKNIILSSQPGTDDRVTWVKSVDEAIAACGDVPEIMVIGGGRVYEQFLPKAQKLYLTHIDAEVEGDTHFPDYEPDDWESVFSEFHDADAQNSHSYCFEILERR
In words: Induction of Escherichia coli DHFR degradation in […] cells at 80 uM measured after 4 hrs. The assay is classed as cell-based.

The target in assay [5] is T2, Glutathione S-transferase A1 (Homo sapiens) (UniProt P08263).
T2 sequence (whole entry): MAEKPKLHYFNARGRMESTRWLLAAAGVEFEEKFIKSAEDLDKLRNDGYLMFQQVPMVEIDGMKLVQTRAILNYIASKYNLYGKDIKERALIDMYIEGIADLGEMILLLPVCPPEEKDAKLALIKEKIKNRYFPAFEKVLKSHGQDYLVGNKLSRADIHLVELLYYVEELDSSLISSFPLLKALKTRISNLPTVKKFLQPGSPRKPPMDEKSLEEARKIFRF
In words: Induction of GSTAlpha1 degradation in […] cells at 40 uM measured after 4 hrs. The assay is classed as cell-based.

In assay [6] the target is T2, Glutathione S-transferase A1 (Homo sapiens). In words: Induction of GSTAlpha1 degradation in human HeLa cells at 80 uM measured after 4 hrs relative to control. Type of assay: cell-based.
The nature of assay [7]: Induction of Akt2 (unknown origin) degradation. Also on record: species or system Homo sapiens.
The target in assay [8] is RAC-alpha serine/threonine-protein kinase (Homo sapiens, UniProt P31749). The experiment in a line: Induction of Akt1 (unknown origin) degradation.
Assay [9] addresses RAC-gamma serine/threonine-protein kinase (Homo sapiens, UniProt Q9Y243). The experiment in a line: Induction of Akt3 (unknown origin) degradation.
The next assay deals with PC-9. The experiment in a line: Anticancer activity against human PC-9 cells xenografted in NSG mouse assessed as tumor growth inhibition at 20 mg/kg, ip administered once every two days for 14 days relative to control. The assay is classed as functional. As to conditions: PC-9, 336 h, time 14 day, read-out: TGI.
The target of assay [10] is ALK tyrosine kinase receptor (Homo sapiens, UniProt Q9UM73). The experiment in a line: Induction of ALK (unknown origin) degradation.
Another assay concerns NCI-H3122. The experiment in a line: Anticancer activity against human NCI-H3122 cells xenografted in mouse assessed as tumor growth inhibition at 20 mg/kg, po administered once every two days for 3 weeks relative to control. Type of assay: functional. As to conditions: NCI-H3122, 504 h, read-out: TGI.
Assay [11] concerns the target Microtubule-associated protein tau (Mus musculus) (UniProt P10637). In words: Induction of tau degradation in mouse N2a cells at 150 uM measured after 24 hrs by Western blot analysis relative to control. Type of assay: cell-based.

Chain of ALK tyrosine kinase receptor (Q9UM73 whole entry): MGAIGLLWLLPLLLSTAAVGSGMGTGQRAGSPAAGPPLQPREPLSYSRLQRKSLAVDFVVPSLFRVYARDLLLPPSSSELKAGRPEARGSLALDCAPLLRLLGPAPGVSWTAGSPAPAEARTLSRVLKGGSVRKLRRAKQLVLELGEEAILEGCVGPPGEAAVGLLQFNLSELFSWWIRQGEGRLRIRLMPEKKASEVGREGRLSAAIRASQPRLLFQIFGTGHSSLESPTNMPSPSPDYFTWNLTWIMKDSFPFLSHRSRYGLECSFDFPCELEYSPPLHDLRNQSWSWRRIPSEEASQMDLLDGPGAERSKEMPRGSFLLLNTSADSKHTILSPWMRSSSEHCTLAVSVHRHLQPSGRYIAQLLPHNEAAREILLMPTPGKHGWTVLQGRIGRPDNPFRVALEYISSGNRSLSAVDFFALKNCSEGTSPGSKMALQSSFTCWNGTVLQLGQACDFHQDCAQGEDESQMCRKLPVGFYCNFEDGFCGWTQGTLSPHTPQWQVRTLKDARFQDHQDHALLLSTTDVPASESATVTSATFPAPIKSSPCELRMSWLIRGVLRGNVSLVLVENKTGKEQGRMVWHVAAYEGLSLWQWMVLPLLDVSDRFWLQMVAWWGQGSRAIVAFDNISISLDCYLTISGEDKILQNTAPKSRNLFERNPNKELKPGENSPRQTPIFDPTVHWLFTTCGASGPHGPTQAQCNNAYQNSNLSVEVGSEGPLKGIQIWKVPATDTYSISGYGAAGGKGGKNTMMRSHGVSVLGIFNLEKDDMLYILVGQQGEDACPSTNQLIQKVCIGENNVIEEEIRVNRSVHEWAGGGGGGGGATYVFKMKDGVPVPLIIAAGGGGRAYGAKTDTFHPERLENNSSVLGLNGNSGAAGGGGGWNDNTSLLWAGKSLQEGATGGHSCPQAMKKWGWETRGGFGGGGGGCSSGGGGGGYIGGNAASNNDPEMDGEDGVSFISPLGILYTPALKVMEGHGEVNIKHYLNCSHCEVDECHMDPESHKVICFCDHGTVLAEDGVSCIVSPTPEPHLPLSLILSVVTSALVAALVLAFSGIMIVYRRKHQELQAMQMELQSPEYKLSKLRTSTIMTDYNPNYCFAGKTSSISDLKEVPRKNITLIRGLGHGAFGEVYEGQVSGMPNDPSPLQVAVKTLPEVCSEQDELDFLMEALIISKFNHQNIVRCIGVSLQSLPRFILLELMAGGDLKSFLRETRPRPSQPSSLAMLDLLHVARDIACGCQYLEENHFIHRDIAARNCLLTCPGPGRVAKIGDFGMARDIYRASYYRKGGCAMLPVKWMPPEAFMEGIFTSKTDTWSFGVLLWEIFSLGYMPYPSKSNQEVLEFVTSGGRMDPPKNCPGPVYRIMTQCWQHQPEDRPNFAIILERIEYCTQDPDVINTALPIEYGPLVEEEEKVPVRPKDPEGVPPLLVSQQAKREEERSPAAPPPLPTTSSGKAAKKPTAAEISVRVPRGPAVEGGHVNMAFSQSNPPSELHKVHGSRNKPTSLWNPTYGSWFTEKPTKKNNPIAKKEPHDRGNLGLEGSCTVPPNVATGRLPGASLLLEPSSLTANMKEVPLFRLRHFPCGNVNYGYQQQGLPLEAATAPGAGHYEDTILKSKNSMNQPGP
Chain of Microtubule-associated protein tau (Mus musculus) (P10637 whole entry): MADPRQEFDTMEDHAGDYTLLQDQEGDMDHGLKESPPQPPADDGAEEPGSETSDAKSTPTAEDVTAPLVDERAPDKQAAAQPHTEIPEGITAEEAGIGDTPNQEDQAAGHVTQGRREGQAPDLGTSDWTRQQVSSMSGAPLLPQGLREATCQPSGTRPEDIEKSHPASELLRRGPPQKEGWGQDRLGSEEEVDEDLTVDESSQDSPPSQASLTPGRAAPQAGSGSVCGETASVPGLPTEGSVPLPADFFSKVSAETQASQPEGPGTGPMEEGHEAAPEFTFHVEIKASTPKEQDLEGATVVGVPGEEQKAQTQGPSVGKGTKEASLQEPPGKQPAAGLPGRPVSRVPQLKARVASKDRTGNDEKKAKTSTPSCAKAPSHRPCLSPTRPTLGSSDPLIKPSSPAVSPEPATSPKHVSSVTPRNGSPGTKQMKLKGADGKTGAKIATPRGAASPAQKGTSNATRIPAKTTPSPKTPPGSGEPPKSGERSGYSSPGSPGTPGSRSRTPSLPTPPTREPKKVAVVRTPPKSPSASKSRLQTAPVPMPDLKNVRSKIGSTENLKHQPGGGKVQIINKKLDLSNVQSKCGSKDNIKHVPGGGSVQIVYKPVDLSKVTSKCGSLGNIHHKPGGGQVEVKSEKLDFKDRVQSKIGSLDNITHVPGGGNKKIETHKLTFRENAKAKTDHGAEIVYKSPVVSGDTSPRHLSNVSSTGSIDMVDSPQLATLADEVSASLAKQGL
Chain of RAC-alpha serine/threonine-protein kinase (P31749 whole entry): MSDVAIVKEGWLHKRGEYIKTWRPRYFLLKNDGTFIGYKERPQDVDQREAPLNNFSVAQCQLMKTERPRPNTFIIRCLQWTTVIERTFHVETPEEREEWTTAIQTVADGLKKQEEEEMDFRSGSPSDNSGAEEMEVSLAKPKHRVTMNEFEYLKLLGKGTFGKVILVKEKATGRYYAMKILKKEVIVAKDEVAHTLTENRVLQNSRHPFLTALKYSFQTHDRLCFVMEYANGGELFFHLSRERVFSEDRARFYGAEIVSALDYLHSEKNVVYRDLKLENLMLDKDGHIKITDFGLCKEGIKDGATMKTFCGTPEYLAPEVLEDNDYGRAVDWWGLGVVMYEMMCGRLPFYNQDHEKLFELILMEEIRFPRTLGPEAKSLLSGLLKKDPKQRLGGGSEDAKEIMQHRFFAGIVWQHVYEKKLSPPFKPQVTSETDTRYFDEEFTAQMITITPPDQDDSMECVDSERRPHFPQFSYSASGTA
Chain of TAR DNA-binding protein 43 (Mus musculus) (Q921F2 whole entry): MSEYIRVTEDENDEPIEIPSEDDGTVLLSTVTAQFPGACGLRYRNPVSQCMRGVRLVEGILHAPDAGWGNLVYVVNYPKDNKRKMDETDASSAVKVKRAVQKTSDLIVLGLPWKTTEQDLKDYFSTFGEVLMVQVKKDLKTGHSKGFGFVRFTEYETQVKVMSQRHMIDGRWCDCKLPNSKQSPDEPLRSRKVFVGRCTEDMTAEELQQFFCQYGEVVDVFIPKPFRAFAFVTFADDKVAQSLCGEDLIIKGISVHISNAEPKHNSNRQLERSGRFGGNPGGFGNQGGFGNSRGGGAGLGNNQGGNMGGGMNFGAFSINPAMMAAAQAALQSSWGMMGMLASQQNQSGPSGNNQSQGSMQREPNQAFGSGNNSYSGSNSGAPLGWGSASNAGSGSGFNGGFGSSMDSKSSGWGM
Chain of RAC-gamma serine/threonine-protein kinase (Q9Y243 whole entry): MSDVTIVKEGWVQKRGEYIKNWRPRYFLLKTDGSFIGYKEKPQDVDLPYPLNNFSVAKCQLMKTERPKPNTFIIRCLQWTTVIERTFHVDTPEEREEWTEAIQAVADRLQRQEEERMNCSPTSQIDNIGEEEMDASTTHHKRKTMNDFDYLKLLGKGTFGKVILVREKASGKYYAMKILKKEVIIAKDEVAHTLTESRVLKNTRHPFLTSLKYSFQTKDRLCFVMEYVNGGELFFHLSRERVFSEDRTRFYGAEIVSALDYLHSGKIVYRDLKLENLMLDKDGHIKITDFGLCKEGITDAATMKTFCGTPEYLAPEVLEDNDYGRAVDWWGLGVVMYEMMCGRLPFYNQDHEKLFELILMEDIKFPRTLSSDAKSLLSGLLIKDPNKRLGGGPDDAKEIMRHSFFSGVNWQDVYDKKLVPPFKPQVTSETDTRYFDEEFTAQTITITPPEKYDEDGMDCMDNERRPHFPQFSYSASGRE

Regarding `CC[C@H](C)[C@H](NC(=O)CNC(=O)[C@H](CCCCN)NC(=O)[C@@H](NC(=O)[C@@H](NC(=O)[C@H](CC(C)C)NC(=O)[C@H](CC(=O)O)NC(=O)[C@H](CCC(=O)O)NC(=O)[C@H](CO)NC(=O)CNC(=O)[C@H](CO)NC(=O)CNC(=O)[C@H](CCCCN)NC(=O)C12CC3CC(CC(NC(=O)C45CC6CC(CC(C6)C4)C5)(C3)C1)C2)[C@@H](C)CC)[C@@H](C)CC)C(=O)N[C@@H](CO)C(=O)N[C@H](C(=O)NCC(=O)N[C@@H](CCCNC(=N)N)C(=O)N[C@@H](CCCCN)C(=O)N[C@@H](CCCCN)C(=O)N[C@@H](CCCNC(=N)N)C(=O)N[C@@H](CCCNC(=N)N)C(=O)N[C@@H](CCC(N)=O)C(=O)N[C@@H](CCCNC(=N)N)C(=O)N[C@@H](CCCNC(=N)N)C(=O)N[C@@H](CCCNC(=N)N)C(N)=O)C(C)C` (Adamantane1carbonyl-[X1]KGSGSEDLIIKGISVGRKKRRQRRR-NH2), the Activity in assay [1] stood at 80%.
As for `C=CC(=O)Nc1cc(-c2nn(C3CCN(CCNC(=O)[C@H](C)CCC45CC6CC(CC(C6)C4)C5)CC3)c3ncnc(N)c23)ccc1Oc1ccccc1`, the EC50 (in [2]; in the assay on OVCAR-8; in [3]) was 800 nM each time.
As to `Cc1cc(C)c(CNC(=O)c2cc(-c3ccc(N4CCN(CCNC(=O)CC56CC7CC(CC(C7)C5)C6)CC4)nc3)cc3c2cnn3C(C)C)c(=O)[nH]1`, the GI50 in the assay on MCF7, in the assay on KARPAS-422, in the assay on HCC1187, in the assay on BT-549, in the assay with SU-DHL-8 and in the assay with HCC70 was 1100 nM in each case. For the same compound, the GI50 (usually the concentration at which growth is held to half of that of the control) in the assay with HCC1954 was 1100 nM.
For the compound `COc1cc(Cc2cnc(N)nc2N)cc(OC)c1OCC(=O)NCCCCCCNC(=O)[C@@H](CCCN/C(=N\C(=O)OC(C)(C)C)NC(=O)OC(C)(C)C)NC(=O)OC(C)(C)C`, the Activity in assay [4] came out at 60%; in [5], 80%.
As for `C=C(CC)C(=O)c1ccc(OCC(=O)O)c(Cl)c1Cl`, the Activity in assay [6] came to 75%.
For the compound `COc1cc(N2CCN(CCCCCCCCCCCCNC(=O)CC34CC5CC(CC(C5)C3)C4)CC2)ccc1Nc1ncc2c(C)cc(=O)n(-c3cccc(NC(=O)C4CC4)c3)c2n1`, the DC50 (in general, the concentration giving 50% degradation) in [7] is above 1000 nM; in [8], above 1000 nM; in [9], 13 nM. In addition, the inhibition in vivo at 20 mg/kg with PC-9 turned out to be 75%.
For the compound `CCc1cc2c(cc1N1CCN(CCCCC(=O)NCC3CC4C=CC3C4)CC1)C(C)(C)c1[nH]c3cc(C#N)ccc3c1C2=O` (stereo not drawn), the DC50 in assay [10] is 134 nM. For the same compound, the inhibition in vivo at 20 mg/kg in the assay on NCI-H3122 was 58%.
Turning to `COc1cc(N2CCN(CC(=O)NCC3CC4C=CC3C4)CC2)ccc1Nc1ncc(Cl)c(Nc2ccccc2P(C)(C)=O)n1` (stereo not drawn), in assay [10], the DC50 turned out to be 89 nM.
Same read-out and setting: as for `Cc1cc(Nc2ncc(Cl)c(Nc3ccccc3S(=O)(=O)C(C)C)n2)c(OC(C)C)cc1C1CCN(CC(=O)NCC2CC3C=CC2C3)CC1` (stereo not drawn), the figure is 314 nM.
As to `C[C@H](NC(=O)[C@H](CC(=O)O)NC(=O)[C@H](CCC(N)=O)NC(=O)[C@H](Cc1ccc(O)cc1)NC(=O)[C@H](CCC(N)=O)NC(=O)[C@H](CCC(N)=O)NC(=O)[C@H](Cc1ccc(O)cc1)NC(=O)C12CC3CC(CC(C3)C1)C2)C(=O)N[C@H](C(=O)N[C@@H](C)C(=O)N[C@@H](CC(=O)O)C(=O)N[C@@H](CCC(=O)O)C(=O)N[C@@H](CCC(N)=O)C(=O)NCC(=O)N[C@H](CCCNC(=N)N)C(=O)N[C@H](CCCNC(=N)N)C(=O)N[C@H](CCCNC(=N)N)C(=O)N[C@H](CCCNC(=N)N)C(=O)N[C@H](CCCNC(=N)N)C(=O)N[C@H](CCCNC(=N)N)C(=O)N[C@H](CCCNC(=N)N)C(=O)N[C@H](CCCNC(=N)N)C(N)=O)[C@@H](C)O`, in [11], the Activity was 88%.
